# Paper PMC5384750 (PLoS ONE, 2017)
# Assays:
# [1] = target: T1, insulin-degrading enzyme (IDE) (Homo sapiens, UniProt P14735); experiment: Inhibition of / competition with sp6 or sp6BY degradation in S10 extract; assay type: biochemical; settings: 30 min, 37°C; for stabilization of sp6BY by known IDE-inhibitors: 10 ng sp6BY, 5 μg S10 extract, increasing concentrations, fluorescence, at least three independent experiments (S2 Fig); for stabilization of sp6 by protease inhibitor (initial screen): 100 ng sp6, 5 μg S10 extract, Western blot, 1.3 mM EDTA, 130 μM Bestatin, 600 nM Phosphoramidon
# T1 construct: endogenous in cells; host or cells: HeLa cells (cytosolic S10 extract)
# T1 sequence (P14735 whole entry): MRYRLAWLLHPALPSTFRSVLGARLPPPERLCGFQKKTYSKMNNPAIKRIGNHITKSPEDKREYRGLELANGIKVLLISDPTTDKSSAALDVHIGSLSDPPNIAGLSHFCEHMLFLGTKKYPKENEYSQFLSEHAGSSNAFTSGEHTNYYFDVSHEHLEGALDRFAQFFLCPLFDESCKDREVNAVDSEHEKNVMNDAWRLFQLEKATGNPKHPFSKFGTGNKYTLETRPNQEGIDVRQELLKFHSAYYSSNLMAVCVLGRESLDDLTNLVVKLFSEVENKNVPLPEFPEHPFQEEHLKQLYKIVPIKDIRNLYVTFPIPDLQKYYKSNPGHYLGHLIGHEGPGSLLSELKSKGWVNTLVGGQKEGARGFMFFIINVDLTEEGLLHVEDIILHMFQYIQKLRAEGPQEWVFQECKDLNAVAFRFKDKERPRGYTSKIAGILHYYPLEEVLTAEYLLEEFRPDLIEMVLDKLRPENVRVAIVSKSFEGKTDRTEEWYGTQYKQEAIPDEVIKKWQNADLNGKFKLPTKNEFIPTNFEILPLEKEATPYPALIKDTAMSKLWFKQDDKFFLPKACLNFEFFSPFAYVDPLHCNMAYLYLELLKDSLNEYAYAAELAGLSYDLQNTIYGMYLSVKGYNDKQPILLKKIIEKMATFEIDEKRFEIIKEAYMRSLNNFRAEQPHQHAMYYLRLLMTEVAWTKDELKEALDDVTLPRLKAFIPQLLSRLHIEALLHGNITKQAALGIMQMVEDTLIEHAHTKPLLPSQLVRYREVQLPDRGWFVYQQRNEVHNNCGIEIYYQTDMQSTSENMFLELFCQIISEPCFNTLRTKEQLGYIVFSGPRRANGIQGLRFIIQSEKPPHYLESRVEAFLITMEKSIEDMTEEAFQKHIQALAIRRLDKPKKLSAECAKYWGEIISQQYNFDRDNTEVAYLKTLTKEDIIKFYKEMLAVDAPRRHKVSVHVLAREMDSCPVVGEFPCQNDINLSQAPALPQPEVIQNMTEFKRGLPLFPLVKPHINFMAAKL
# Description: (§1) For generation of S10, confluent dishes with HeLa cells were extensively washed and subsequently lysed with a modified S10 buffer (250 mM sucrose, 80 mM KCl, 10 mM Tris pH 7.6, 0.1% (v/v) Triton X-100 [91]). Debris and nuclei were removed by centrifugation at 10.000 × g for 10 min. Protein content was determined by BCA-Assay (Pierce) and aliquots stored at -80°C.
# (§2) Reactions were stopped by addition of sample buffer and incubation at 95°C for 5 min. Remaining p6 was detected by Western blotting using an anti-p6 rabbit antiserum. Alternatively, 10 ng of BODIPY FL-labeled sp6 (sp6BY) were used as substrate and detected directly in the polyacrylamide gel by fluorescence scanning. In some experiments the amount of p6 was densitometrically quantified with the software AIDA (Raytest). For the in vitro degradation of amyloid-β 10 ng of Aβ-FITC (abcam) were used analogously to sp6BY. For the in vitro degradation of viral p6, VLPs were pelleted and lysed in IDE enzyme buffer (150 mM NaCl, 50 mM Tris pH 7.4, 0.5% (v/v) Triton X-100). The p6 content was estimated by Western blotting using a dilution series of sp6 with known concentrations. Equivalents of 15 ng were used for digestion experiments and subsequently detected by Western blotting. Experiments carried out with recombinant IDE (Calbiochem) were performed in IDE enzyme buffer.
# Bestatin, Chymostatin, E-64, Leupeptin, Pepstatin, Phosphoramidon, Pefabloc SC, EDTA, Aprotinin, Antipain were purchased from Roche as part of a protease inhibitors set and used at the following concentrations: 74 μM Antipain; 130 μM Bestatin; 100 μM Chymostatin; 28 μM E-64; 1 μM Leupeptin; 1 μM Pepstatin; 600 nM Phosphoramidon; 4 mM Pefabloc SC; 1.3 mM EDTA; […]. […] (Phoenix Pharmaceuticals and Tocris), TPEN (Calbiochem), and NEM (Roche) were purchased from companies indicated.
# [2] = In vitro degradation in cytosolic S10 HeLa cell extract; assay type: in vitro ADME; settings: 10 ng sp6BY E0A or vp6 S40F, S14N, K27/33R; 5 μg S10 extract, 37°C; fluorescence or Western blot; three independent experiments (S1B Fig)
# Description: as §1
# as §2, with “Typically 5 μg S10 were incubated with inhibitor or buffer and 20–100 ng sp6 at 37°C for 30 min. Reactions” for “Reactions”, “buffer. Recombinant FITC-labeled insulin was purchased from Sigma.” for “buffer.”
# recombinant IDE (rIDE) = target: T2, recombinant IDE (rIDE) (Rattus norvegicus, UniProt P35559); experiment: Inhibition of rIDE-mediated degradation of sp6BY; assay type: biochemical; settings: 10 ng rIDE, 10 ng sp6BY, 30 min, 37°C; TPEN 1 mM, NEM 1 mM, insulin 100 μg/ml
# T2 construct: purchased Calbiochem
# T2 sequence (P35559 whole entry): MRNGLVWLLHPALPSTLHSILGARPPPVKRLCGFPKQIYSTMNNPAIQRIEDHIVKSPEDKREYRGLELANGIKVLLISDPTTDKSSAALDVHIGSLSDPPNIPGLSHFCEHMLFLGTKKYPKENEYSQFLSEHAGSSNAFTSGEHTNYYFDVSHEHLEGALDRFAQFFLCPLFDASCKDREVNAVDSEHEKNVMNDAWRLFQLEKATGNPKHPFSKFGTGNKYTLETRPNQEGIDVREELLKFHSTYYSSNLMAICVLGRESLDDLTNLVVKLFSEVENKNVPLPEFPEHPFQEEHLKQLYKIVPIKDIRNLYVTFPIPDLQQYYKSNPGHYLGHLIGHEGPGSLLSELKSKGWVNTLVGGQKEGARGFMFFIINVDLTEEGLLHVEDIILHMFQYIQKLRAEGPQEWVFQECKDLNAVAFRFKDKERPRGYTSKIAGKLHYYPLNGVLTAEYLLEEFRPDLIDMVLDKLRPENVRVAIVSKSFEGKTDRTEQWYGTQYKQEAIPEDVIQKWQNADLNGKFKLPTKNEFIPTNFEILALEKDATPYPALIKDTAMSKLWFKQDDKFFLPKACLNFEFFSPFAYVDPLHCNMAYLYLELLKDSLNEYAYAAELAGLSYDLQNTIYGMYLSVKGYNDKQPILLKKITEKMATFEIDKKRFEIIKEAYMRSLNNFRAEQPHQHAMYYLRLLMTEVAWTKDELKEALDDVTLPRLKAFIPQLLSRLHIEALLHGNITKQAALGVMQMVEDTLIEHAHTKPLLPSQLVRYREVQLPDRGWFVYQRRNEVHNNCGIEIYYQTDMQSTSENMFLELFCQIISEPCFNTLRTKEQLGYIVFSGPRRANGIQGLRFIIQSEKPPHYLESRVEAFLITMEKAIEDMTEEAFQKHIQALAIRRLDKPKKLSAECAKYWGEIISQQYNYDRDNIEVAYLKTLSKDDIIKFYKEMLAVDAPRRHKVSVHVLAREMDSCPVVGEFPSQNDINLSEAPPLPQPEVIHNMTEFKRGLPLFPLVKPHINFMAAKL
# Description: Fig 6 IDE is sufficient and required for the in vitro degradation of sp6 and vp6. (A) 10 ng sp6BY were incubated with 5 μg S10 extract from HeLa cells, either untransfected or transfected with control or IDE-specific siRNA, for 0, 10, 30 or 90 min at 37°C. (B) sp6BY was detected by fluorescence emission and quantified. (C) VLP lysates from HEK293T cells were incubated with S10 from siRNA treated cells described in A. Viral proteins were detected as described in Fig 1. (D) Western blot analyses of the S10 extract used in A and C. The membrane was stained with antibodies specific for IDE, HSP70, and β-actin. […] (F) VLP lysates were incubated with 10 ng rIDE for 30 min.
# as §2, with “Typically 5 μg S10 were incubated with inhibitor or buffer and 20–100 ng sp6 at 37°C for 30 min. Reactions” for “Reactions”, “buffer. Recombinant FITC-labeled insulin was purchased from Sigma.” for “buffer.”
# [3] = cytosolic S10 HeLa cell extract (S10); settings: 37°C, up to 60 min
# purified mammalian IDE = settings: cited from earlier work
compound,measurement,setting,value
Nc1ncnc2c1ncn2[C@@H]1O[C@H](COP(=O)(O)OP(=O)(O)OP(=O)(O)O)[C@@H](O)[C@H]1O [ATP],stabilization of sp6BY by known IDE-inhibitors,[1],prevented the degradation of p6
CC(C)C[C@H](NC(=O)[C@@H](O)[C@H](N)Cc1ccccc1)C(=O)O [Bestatin],stabilization of sp6 by protease inhibitor (initial screen),[1],did not stabilize p6
O=C(O)CN(CCN(CC(=O)O)CC(=O)O)CC(=O)O [EDTA],stabilization of sp6 by protease inhibitor (initial screen),[1],could stabilize sp6
CC[C@H](C)[C@H](NC(=O)[C@@H]1CCCN1C(=O)[C@H](CCC(=O)O)NC(=O)[C@H](CCC(N)=O)NC(=O)[C@H](CCCNC(=N)N)NC(=O)[C@H](CCC(N)=O)NC(=O)[C@H](CO)NC(=O)[C@@H]1CCCN1C(=O)[C@@H](NC(=O)[C@@H](NC(=O)[C@@H](NC(=O)[C@H](CCC(=O)O)NC(=O)[C@H](CCC(=O)O)NC(=O)CNC(=O)[C@H](Cc1ccccc1)NC(=O)[C@H](CCCNC(=N)N)NC(=O)[C@H](Cc1ccccc1)NC(=O)[C@H](CO)NC(=O)[C@H](CCC(=O)O)NC(=O)[C@H](CCC(=O)O)NC(=O)[C@@H]1CCCN1C(=O)[C@@H]1CCCN1C(=O)[C@H](C)NC(=O)[C@@H](NC(=O)[C@@H]1CCCN1C(=O)[C@H](CCC(=O)O)NC(=O)[C@@H]1CCCN1C(=O)[C@H](CCCNC(=N)N)NC(=O)[C@H](CO)NC(=O)[C@H](CCC(N)=O)NC(=O)[C@@H](N)CC(C)C)[C@@H](C)O)[C@@H](C)O)[C@@H](C)O)[C@@H](C)O)C(=O)N[C@@H](CC(=O)O)C(=O)N[C@@H](CCCNC(=N)N)C(=O)N[C@@H](CCC(=O)O)C(=O)N[C@@H](CC(C)C)C(=O)N[C@@H](Cc1ccc(O)cc1)C(=O)N1CCC[C@H]1C(=O)N[C@@H](CC(C)C)C(=O)N[C@@H](C)C(=O)N[C@@H](CO)C(=O)N[C@@H](CC(C)C)C(=O)N[C@@H](CCCNC(=N)N)C(=O)N[C@@H](CO)C(=O)N[C@@H](CC(C)C)C(=O)N[C@@H](Cc1ccccc1)C(=O)NCC(=O)N[C@@H](CO)C(=O)N[C@@H](CC(=O)O)C(=O)N1CCC[C@H]1C(=O)N[C@@H](CO)C(=O)N[C@@H](CO)C(=O)N[C@@H](CCC(N)=O)C(=O)O [K27/33R],degradation efficiency of HIV-1NL4-3 p6 mutants in S10 extract,[2],wt degradation efficiency
"CCN1C(=O)C=CC1=O [NEM, N-ethylmaleimide]",stabilization of sp6BY by known IDE-inhibitors,[1],prevented the degradation of p6
same,stabilization of sp6 in the presence of rIDE,recombinant IDE (rIDE),stabilized sp6
CC(C)C[C@H](NP(=O)(O)O[C@@H]1O[C@@H](C)[C@H](O)[C@@H](O)[C@H]1O)C(=O)N[C@@H](Cc1c[nH]c2ccccc12)C(=O)O [Phosphoramidon],stabilization of sp6 by protease inhibitor (initial screen),[1],failed to stabilize p6
CC[C@H](C)[C@H](NC(=O)[C@@H]1CCCN1C(=O)[C@H](CCC(=O)O)NC(=O)[C@H](CCC(N)=O)NC(=O)[C@H](CCCCN)NC(=O)[C@H](CCC(N)=O)NC(=O)[C@H](CO)NC(=O)[C@@H]1CCCN1C(=O)[C@@H](NC(=O)[C@@H](NC(=O)[C@@H](NC(=O)[C@H](CCC(=O)O)NC(=O)[C@H](CCC(=O)O)NC(=O)CNC(=O)[C@H](Cc1ccccc1)NC(=O)[C@H](CCCNC(=N)N)NC(=O)[C@H](Cc1ccccc1)NC(=O)[C@H](CC(N)=O)NC(=O)[C@H](CCC(=O)O)NC(=O)[C@H](CCC(=O)O)NC(=O)[C@@H]1CCCN1C(=O)[C@@H]1CCCN1C(=O)[C@H](C)NC(=O)[C@@H](NC(=O)[C@@H]1CCCN1C(=O)[C@H](CCC(=O)O)NC(=O)[C@@H]1CCCN1C(=O)[C@H](CCCNC(=N)N)NC(=O)[C@H](CO)NC(=O)[C@H](CCC(N)=O)NC(=O)[C@@H](N)CC(C)C)[C@@H](C)O)[C@@H](C)O)[C@@H](C)O)[C@@H](C)O)C(=O)N[C@@H](CC(=O)O)C(=O)N[C@@H](CCCCN)C(=O)N[C@@H](CCC(=O)O)C(=O)N[C@@H](CC(C)C)C(=O)N[C@@H](Cc1ccc(O)cc1)C(=O)N1CCC[C@H]1C(=O)N[C@@H](CC(C)C)C(=O)N[C@@H](C)C(=O)N[C@@H](CO)C(=O)N[C@@H](CC(C)C)C(=O)N[C@@H](CCCNC(=N)N)C(=O)N[C@@H](CO)C(=O)N[C@@H](CC(C)C)C(=O)N[C@@H](Cc1ccccc1)C(=O)NCC(=O)N[C@@H](CO)C(=O)N[C@@H](CC(=O)O)C(=O)N1CCC[C@H]1C(=O)N[C@@H](CO)C(=O)N[C@@H](CO)C(=O)N[C@@H](CCC(N)=O)C(=O)O [S14N],degradation efficiency of HIV-1NL4-3 p6 mutants in S10 extract,[2],wt degradation efficiency
CC[C@H](C)[C@H](NC(=O)[C@@H]1CCCN1C(=O)[C@H](CCC(=O)O)NC(=O)[C@H](CCC(N)=O)NC(=O)[C@H](CCCCN)NC(=O)[C@H](CCC(N)=O)NC(=O)[C@H](CO)NC(=O)[C@@H]1CCCN1C(=O)[C@@H](NC(=O)[C@@H](NC(=O)[C@@H](NC(=O)[C@H](CCC(=O)O)NC(=O)[C@H](CCC(=O)O)NC(=O)CNC(=O)[C@H](Cc1ccccc1)NC(=O)[C@H](CCCNC(=N)N)NC(=O)[C@H](Cc1ccccc1)NC(=O)[C@H](CO)NC(=O)[C@H](CCC(=O)O)NC(=O)[C@H](CCC(=O)O)NC(=O)[C@@H]1CCCN1C(=O)[C@@H]1CCCN1C(=O)[C@H](C)NC(=O)[C@@H](NC(=O)[C@@H]1CCCN1C(=O)[C@H](CCC(=O)O)NC(=O)[C@@H]1CCCN1C(=O)[C@H](CCCNC(=N)N)NC(=O)[C@H](CO)NC(=O)[C@H](CCC(N)=O)NC(=O)[C@@H](N)CC(C)C)[C@@H](C)O)[C@@H](C)O)[C@@H](C)O)[C@@H](C)O)C(=O)N[C@@H](CC(=O)O)C(=O)N[C@@H](CCCCN)C(=O)N[C@@H](CCC(=O)O)C(=O)N[C@@H](CC(C)C)C(=O)N[C@@H](Cc1ccc(O)cc1)C(=O)N1CCC[C@H]1C(=O)N[C@@H](CC(C)C)C(=O)N[C@@H](C)C(=O)N[C@@H](Cc1ccccc1)C(=O)N[C@@H](CC(C)C)C(=O)N[C@@H](CCCNC(=N)N)C(=O)N[C@@H](CO)C(=O)N[C@@H](CC(C)C)C(=O)N[C@@H](Cc1ccccc1)C(=O)NCC(=O)N[C@@H](CO)C(=O)N[C@@H](CC(=O)O)C(=O)N1CCC[C@H]1C(=O)N[C@@H](CO)C(=O)N[C@@H](CO)C(=O)N[C@@H](CCC(N)=O)C(=O)O [S40F],degradation efficiency of HIV-1NL4-3 p6 mutants in S10 extract,[2],wt degradation efficiency
c1ccc(CN(CCN(Cc2ccccn2)Cc2ccccn2)Cc2ccccn2)nc1 [TPEN],stabilization of sp6 in the presence of rIDE,recombinant IDE (rIDE),stabilized sp6
Bacitracin,stabilization of sp6BY by known IDE-inhibitors,[1],prevented the degradation of p6
PIQQKSQHNKSVVQETPQTQNLYPDLSEIKKEYNVKEKDQVEDLNLDSLWE,not cleaved,[3],no degradation observed (up to 60 min)
PMAQVHQGLMPTAPPEDPAVDLLKNYMQLGKQQREKQRESREKPYKEVTEDLLHLNSLFGGDQ,not cleaved,[3],no degradation observed (up to 60 min)
PVAQVPQGLTPTAPPVDPAVDLLEKYMQQGKRQREQRERPYKEVTEDLLHLEQGETPYREPPTEDLLHLNSLFGKDQ,not cleaved,[3],no degradation observed (up to 60 min)
amyloid-β [Aβ],kcat,purified mammalian IDE; purified mammalian IDE,0.875 s⁻¹
same,Km,purified mammalian IDE; rounded value,1.2 µM
